Data published in US20140369987A1, “DERMASEPTIN B2 USED AS AN INHIBITOR OF THE GROWTH OF A TUMOR” (Centre National de la Recherche Scientifique (C.N. R.S), priority 2009, published 2014).
Ends that are not written are not given here.

How the values were obtained:
[1] = tested on: tumours induced by injection of PC-3; assay: Growth of PC-3 xenograft tumours in nude mice; type: in vivo
Description: Batches of 10 nude mice (nude/nude, Laboratoire IFFA CREDO) were injected with 2×10^6 PC-3 cells. One week after injection of the cells, the animals having a palpable tumour were randomly distributed per cage to be treated by injection into the tumour with 100 μl per day of PBS solution (control batch) or with a solution of dermaseptin B2 diluted in PBS. Dermaseptin B2 was injected at a concentration of 5 mg/kg the first week of treatment, then this dose was reduced to 0.5 mg/kg for 12 days. […] As control, a batch of mice was also treated with Taxol® (paclitaxel, Bristol-Myers Squibb) twice per week via intra-peritoneal injection at 10 mg/kg. The size of the tumours was measured using a calliper twice a week up until sacrifice of the animals 29 days after the beginning of treatment. After sacrifice, the tumours were removed and weighed.

[2] = tested on: PC-3 cells; assay: Colony formation of PC-3 cells in soft agar; type: cell-based, human; details: 5 μM; 12 days
Description: To confirm the inhibition of the cell growth observed on plastic with the PC-3 cells, the inventors tested the effect of dermaseptin B2 on the ability of the PC-3 cells to multiply independently of anchoring by forming colonies in agar. For this assay, the cells were seeded at a density of 2.5×10^3 cells par cm^2 diluted in complete culture medium (RPMI supplemented with 5% foetal calf serum) containing 0.35% agar and varying concentrations of dermaseptin B2, in 12-well dishes containing 1 ml of solidified 0.6% agar. The same variable concentrations of dermaseptin B2 were also added to the complete culture medium deposited on top of the cultures on the day of seeding, and twice per week. After incubation for 12 days at 37° C. in an incubator saturated with water vapour and containing 7% CO2, the colonies having a diameter larger than […] were counted. Each measurement was performed in triplicate and each experiment was repeated three times.

[3] = tested on: receptor of adenosin A1; details: cited from earlier work
[4] = tested on: ABAE cells; assay: Formation of pseudo capillaries by ABAE cells on collagen 1 gel (Montessano test); type: cell-based, bovine; details: 5 μM
Description: The effect of dermaseptin B2 on the formation of pseudo capillaries was assessed through use of the Montessano test. This test allows evaluation of the differentiation of ABAE cells to pseudo capillaries when seeded in a monolayer on collagen 1 gel. For this assay, ABAE cells were seeded in 24-well plates on a monolayer of collagen 1 to the proportion of 10^5 cells/well in DMEM medium supplemented with 10% foetal calf serum. 24 hours after seeding, 20 ng/ml of FGF-2 were added to the cells in the absence or presence of varying concentrations of dermaseptin B2. This treatment was renewed for two days and the formation of a network of pseudo capillaries was assessed 24 hours later by observation under phase contrast microscope measuring the number of capillaries formed per field of observation (FIGS. 5C and D).

[5] = tested on: PC-3 cells; assay: Annexin V FITC / propidium iodide double labelling, flow cytometry; type: cell-based, human; details: 2.5 μM
Description: During the proliferation assays of PC-3 or ABAE cells, in the presence of dermaseptin B2, the rapidly observed inhibitor effect and the non-refringence of the treated cells leads to assuming that dermaseptin B2 could have a cytotoxic role or cell death inducing role rather than blocking the growth of sensitive cells. To determine whether dermaseptin B2 could induce apoptosis of sensitive cells, the inventors conducted double labelling experiments with Annexin V and propidium iodide on PC-3 cells in culture on plastic and treated or not treated with dermaseptin B2. These experiments were followed by flow cytometry analysis of the labelled cells.
For this purpose, the cells were seeded in 6-well plates in the absence or presence of 2.5 μM of dermaseptin B2 for 24 or 72 hours. The cells were then detached, washed with cold PBS and re-suspended in 100 μl of fixing buffer (MACs, Miltenyi Biotec) containing Annexin V FITC for 10 min in the dark. After washings in PBS, the cells were again labelled by incubation in a fixing buffer containing a final concentration of 1 μg/ml of propidium iodide (PI) for 5 min in the dark. After further washings the cells were analyzed by passing through a flow cytometer (FACScan, Becton Dickinson Labware) (FIGS. 10 and 11).

[6] = tested on: Raji cells; assay: Growth of non-adherent B-lymphoma line Raji, crystal violet cell count; type: cell-based, human; details: 10 μM; count on 7th day
Description: (§1) Dermaseptin B2 was also tested on the growth of two non-adherent lines derived from human B-lymphoma: the Raji and LB-EBV lines. The cells were seeded at 10^4 cells per well in 0.5 ml of RPMI medium supplemented with 2.5% of decomplemented foetal calf serum. 24 hours after seeding, the cells were treated with different concentrations of dermaseptin B2. […] On the 7th day, the cell count was estimated by staining with crystal violet as described previously.

[7] = tested on: Gram+ and Gram− bacteria, yeasts, protozoa and filamentous fungi; details: micromolar doses; cited from earlier work
[8] = tested on: mouse embryo cells (CES)
Description: (§2) The anti-proliferative activity of dermaseptin B2 was assessed in vitro on different types of cells: PC-3 adenocarcinoma cells and G1947 human prostatic hyperplasia cells, and on mouse embryo cells (CES). The different types of cells were seeded in 24-well plates at […] in 0.5 ml of culture medium (RPMI supplemented with 5% foetal calf serum for the PC-3 and G1947 cells, or DMEM supplemented with 10% foetal calf serum for the CES cells). After 24 hours, the cells were treated with different doses of dermaseptin B2. The treatment was then renewed at days 3 and 5 after seeding of the cells. On the 6th day, an estimated cell count was performed by staining with crystal violet. The cells were rinsed with PBS, fixed on plastic by dehydration with absolute ethanol, and then stained with a 0.2% solution of crystal violet in 2% ethanol for 15 min. After washing, the cells were solubilised with 1% SDS solution. The optical density (OD) of the crystal violet was measured using a spectrophotometer at 595 nm. A standard range was produced for conversion of OD-number of cells.

[9] = tested on: G1947 human prostatic hyperplasia cells
Description: as §2

[10] = tested on: adult bovine aortic endothelial cells (ABAE); assay: Proliferation of ABAE endothelial cells on plastic; type: cell-based; details: with 5 ng/ml FGF-2; count on 7th day
Description: The angiostatic activity of dermaseptin B2 was assessed for its capacity to inhibit firstly the proliferation of adult bovine aortic endothelial cells (ABAE) on plastic and secondly the formation of pseudo capillaries by these same cells in collagen gel. For the proliferation test the ABAE cells were seeded in 24-well plates at a density of 10^4 cells/well in DMEM medium supplemented with 10% foetal calf serum and 5 ng/ml of FGF-2. […] On the 7th day the cell count was estimated by staining with crystal violet.

[11] = tested on: LB-EBV cells; assay: Growth of non-adherent B-lymphoma line LB-EBV, crystal violet cell count; type: cell-based, human; details: 10 μM; count on 7th day
Description: as §1

CC(=O)O[C@H]1C(=O)[C@@]2(C)[C@H]([C@H](OC(=O)c3ccccc3)[C@]3(O)C[C@H](OC(=O)[C@H](O)[C@@H](NC(=O)c4ccccc4)c4ccccc4)C(C)=C1C3(C)C)[C@]1(OC(C)=O)CO[C@@H]1C[C@@H]2O [Taxol®, paclitaxel, reference compound]
inhibition of tumour growth (tumour volume) compared with non-treated tumours ([1]; intra-peritoneal 10 mg/kg twice per week, 29 days of treatment): 36%

GLWSKIKEVGKEAAKAAAKAAGKAALGAVSEAV [dermaseptin B2]
growth of PC-3 cells on soft agar (colonies) [2]: fully inhibits growth | effect on binding of agonists with the receptor of adenosin A1 [3]: increase the binding of agonists | formation of pseudo capillaries induced by FGF-2 ([4]; 20 ng/ml FGF-2): strongly inhibits | cytotoxic effect on the monolayer of ABAE cells ([4]; pseudo capillary assay): did not have any cytotoxic effect | mice with full disappearance of the tumour ([1]; batches of 10 mice, after sacrifice at day 29): 3 mice | increase of percentage of cells labelled solely with PI (necrosis) [5]: 3 times | increase in cells labelled twofold with Annexin V and PI (apoptosis) ([5]; 24 h): about 30% | increase of percentage of cells only labelled with Annexin V (early apoptosis) ([5]; 24 h): 5 times | percentage of non-labelled cells ([5]; 24 h): dropped suddenly in the same proportions | percentage of cells labelled twofold with Annexin V and PI, 72 h versus 24 h ([5]; 72 h): does not change | inhibition of growth of Raji cells [6]: about 95 | killing of Gram+ and Gram− bacteria, yeasts, protozoa and filamentous fungi [7]: rapidly kills | cell detachment during treatment, embryo (CES) cells [8]: no cell detachment was observed | cell detachment during treatment, G1947 cells [9]: no cell detachment was observed | inhibition of growth of ABAE cells [10]: dose-dependent and full inhibition | inhibition of growth of LB-EBV cells [11]: about 95
